This passage reports IC50 results from patent US6300345A, “Cyanoguanidines as cell proliferation inhibitors” (Leo Pharmacuetical Products Ltd. A/S (L.o slashed.vens …, priority 1997, dated 2001).

Holding throughout (format): cell-based
The subject of experiment [1] is human small cell lung carcinoma (NYH). The experiment in a line: Inhibition of tumour cell proliferation in vitro ([3H]thymidine incorporation), NYH. As to conditions: 24 hours. On the procedure: (§1) The inhibition of tumour cell proliferation was studied using different types of human cancer cell lines. The cell lines under investigation were small cell lung carcinoma (NYH), non small cell lung carcinoma (NCI-H460), and breast cancer (MCF-7) using the following general procedure:
(§2) The cells were cultured in vitro for 24 hours in the presence of the compound under investigation. DNA synthesis was measured by incorporation of [3H]thymidine, and the median inhibitory concentrations (IC50) of the compounds were calculated.

In experiment [2] the test system is human breast cancer (MCF-7). The experiment in a line: Inhibition of tumour cell proliferation in vitro ([3H]thymidine incorporation), MCF-7. As to conditions: MCF7, MCF-7, 24 hours. On the procedure:
as §1, §2

Experiment [3] relates to human non small cell lung cancer (NCI-H460). Description: Inhibition of tumour cell proliferation in vitro ([3H]thymidine incorporation), NCI-H460. As to conditions: NCI-H460, 24 hours. On the procedure: as §1, §2

With `N#CN=C(NCCCCCCCCCCCCNC(=NC#N)Nc1cccnc1)Nc1cccnc1` [Example No. 6, 1,12-Bis(N'-cyano-N"-3-pyridylguanidino)dodecane], the values for the 50% inhibitory concentration (IC50) in experiment [1], in experiment [2] and in experiment [3] were 4.4 nM, 26 nM and 65 nM, respectively.

As to `N#CN=C(NCCCCCCCCCCNC(=NC#N)Nc1ccncc1)Nc1ccncc1` [Example No. 8, 1,10-Bis(N'-cyano-N"-4-pyridylguanidino)decane], the IC50 is 0.91 nM in experiment [1], 6.6 nM in experiment [2] and 65 nM in experiment [3].

Turning to `N#CN=C(NCCCCCCCCCCCCNC(=NC#N)Nc1ccncc1)Nc1ccncc1` [Example No. 14, 1,12-Bis(N'-cyano-N"-4-pyridylguanidino)dodecane], the IC50 turned out to be 0.5 nM in experiment [1], 13 nM in experiment [2] and 69 nM in experiment [3].
